Data on ten molecules can be found in patent US20070049593A1 (priority 2004, published 2007).

For the assay, the target named is T1, HCV polymerase (Hepatitis C virus genotype 1b, UniProt P26663).
T1 construct: a region encoding NS5B (J Virol 1991 March, 65(3), 1105-13, 544 amino acids after deletion of 47 amino acids on the C-terminal); 6xHis (C); made in house; host or cells: Escherichia coli
In words: biochemical. Details: species or system HCV BK strain. In a few lines:
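His-tagged NS5B (BK strain, 47-aa C-terminal deletion, E. coli-expressed) at 0.5 μg/ml copied 5 μg/ml run-off RNA bearing the HCV 3′ UTR with 2 μM UTP plus [3H]UTP, 50 μM ATP/GTP, in pH 7.5 Tris with 5 mM MgCl2, 25 °C, 90 min. TCA-precipitated RNA was counted and IC50 calculated.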

T1 sequence (P26663 2420-2963): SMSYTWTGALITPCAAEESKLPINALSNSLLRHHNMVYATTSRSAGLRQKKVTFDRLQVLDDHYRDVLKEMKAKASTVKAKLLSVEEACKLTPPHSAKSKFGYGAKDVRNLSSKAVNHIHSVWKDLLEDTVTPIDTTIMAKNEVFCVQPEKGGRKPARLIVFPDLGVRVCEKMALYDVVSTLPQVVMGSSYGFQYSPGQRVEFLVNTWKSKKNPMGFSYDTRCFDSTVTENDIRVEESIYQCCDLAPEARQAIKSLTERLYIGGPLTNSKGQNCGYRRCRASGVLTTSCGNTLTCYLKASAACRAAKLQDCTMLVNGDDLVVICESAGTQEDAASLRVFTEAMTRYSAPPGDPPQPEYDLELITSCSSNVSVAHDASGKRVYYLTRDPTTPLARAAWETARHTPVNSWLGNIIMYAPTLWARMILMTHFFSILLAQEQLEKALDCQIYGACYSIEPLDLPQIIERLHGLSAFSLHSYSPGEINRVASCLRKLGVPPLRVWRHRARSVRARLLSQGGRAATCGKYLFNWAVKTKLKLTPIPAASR

What is called IC50 is the point on the concentration scale where inhibition reaches its midpoint. A high value points to lower potency. For `COc1ccc2c(c1)OCCn1c-2c(C2CCCCC2)c2ccc(C(=O)NC(C)(C)c3ncc(-c4ccc(C(=O)O)cc4)[nH]3)cc21` [Example 2-399, 4-(2-{1-[(12-cyclohexyl-3-methoxy-6,7-dihydro-5-oxa-7a-azadibenzo[a,e]azulene-9-carbonyl)amino]-1-methylethyl}-3H-imidazol-4-yl)benzoic acid], the half-inhibitory concentration (IC50) was below 100 nM.

Regarding `COc1ccc2c(c1)OCCn1c-2c(C2CCCCC2)c2ccc(C(=O)NC3(C(=O)O)CCOCC3)cc21` [Example 2-400, 4-[(12-cyclohexyl-3-methoxy-6,7-dihydro-5-oxa-7a-azadibenzo[a,e]azulene-9-carbonyl)amino]tetrahydropyran-4-carboxylic acid], the IC50 was below 100 nM.

Molecule `COc1ccc2c(c1)OCCn1c-2c(C2CCCCC2)c2ccc(C(=O)NC3(C(=O)Nc4ccc(/C=C/C(=O)O)cc4)CCOCC3)cc21` [Example 2-401, (E)-3-[4-({4-[(12-cyclohexyl-3-methoxy-6,7-dihydro-5-oxa-7a-azadibenzo[a,e]azulene-9-carbonyl)amino]tetrahydropyran-4-carbonyl}amino)phenyl]acrylic acid] showed an IC50 below 100 nM.

Molecule `COc1ccc2c(c1)OCCn1c-2c(C2CCCCC2)c2ccc(C(=O)NC3(C(=O)Nc4ccc(C(=O)O)cc4)CCOCC3)cc21` [Example 2-402, 4-({4-[(12-cyclohexyl-3-methoxy-6,7-dihydro-5-oxa-7a-azadibenzo[a,e]azulene-9-carbonyl)amino]tetrahydropyran-4-carbonyl}amino)benzoic acid] gave an IC50 below 100 nM.

The molecule `COc1ccc2c(c1)OCCn1c-2c(C2CCCCC2)c2ccc(C(=O)NC(C)(C)c3nc4cc(C(=O)O)ccc4c(=O)[nH]3)cc21` [Example 2-403, 2-{1-[(12-cyclohexyl-3-methoxy-6,7-dihydro-5-oxa-7a-azadibenzo[a,e]azulene-9-carbonyl)amino]-1-methylethyl}-4-oxo-3,4-dihydroquinazoline-7-carboxylic acid] displayed a concentration for half-maximal inhibition (IC50) below 100 nM.

On to `COc1ccc2c(c1)OCCn1c-2c(C2CCCCC2)c2ccc(C(=O)NC(C)(C)c3nc(N(C)C)c4ccc(C(=O)O)cc4n3)cc21` [Example 2-404, 2-{1-[(12-cyclohexyl-3-methoxy-6,7-dihydro-5-oxa-7a-azadibenzo[a,e]azulene-9-carbonyl)amino]-1-methylethyl]-4-dimethylaminoquinazoline-7-carboxylic acid], for which the 50% inhibitory concentration (IC50) was below 100 nM.

On to `COc1ccc2c(c1)OCCn1c-2c(C2CCCCC2)c2ccc(C(=O)NC(C)(C)c3nc4cc(CO)ccc4[nH]3)cc21` [Example 2-405, N-[1-(5-hydroxymethyl-1H-benzimidazol-2-yl)-1-methylethyl]-12-cyclohexyl-3-methoxy-6,7-dihydro-5-oxa-7a-azadibenzo[a,e]azulene-9-carboxamide], for which the IC50 was below 100 nM.

`COc1ccc2c(c1)OCCn1c-2c(C2CCCCC2)c2ccc(C(=O)NC3(C(=O)Nc4ccc(C(C)(C)C(=O)O)cc4)CCC3)cc21` [Example 2-406, 2-[4-({1-[(12-cyclohexyl-3-methoxy-6,7-dihydro-5-oxa-7a-azadibenzo[a,e]azulene-9-carbonyl)amino]cyclobutanecarbonyl}amino)phenyl]-2-methylpropionic acid] came in with an IC50 below 100 nM.

For the molecule `COC(=O)Nc1ccc(C[C@H](NC(=O)c2ccc3c(C4CCCCC4)c4n(c3c2)CCOc2cc(OC)ccc2-4)c2nc(C)no2)cc1` [Example 2-407, methyl {4-[(S)-2-[(12-cyclohexyl-3-methoxy-6,7-dihydro-5-oxa-7a-azadibenzo[a,e]azulene-9-carbonyl)amino]-2-(3-methyl-1,2,4-oxadiazol-5-yl)ethyl]phenyl}carbamate], the IC50 is below 100 nM.

In the case of `COc1ccc2c(c1)OCCn1c-2c(C2CCCCC2)c2ccc(C(=O)NC(C)(C)c3nc4ccccc4[nH]3)cc21` [Example 2-408, N-[1-(1H-benzimidazol-2-yl)-1-methylethyl]-12-cyclohexyl-3-methoxy-6,7-dihydro-5-oxa-7a-azadibenzo[a,e]azulene-9-carboxamide], the IC50 is below 100 nM.
